Measured values taken from US20240391940A1, “FUSED RING-CONTAINING COMPOUND, APPLICATION THEREOF, AND COMPOSITION CONTAINING SAME” (GenEros Biopharma Ltd., priority 2020, published 2024).
Where two headings read alike, the source gives them in different places.

Legend:
[1] = target: T1, hERG ion channel (Homo sapiens, UniProt Q12809); experiment: hERG ion channel inhibition, automated QPatch on CHO cells expressing hERG; type: cell-based; details: for Inhibitory activity against hERG (conclusion): 0.1-30 μM; for inhibition at 0.3 µM / inhibition at 1 µM / inhibition at 3 µM: human, CHO cells stably expressing hERG channels
T1 construct: expressed in transfected cells; host or cells: CHO cells, stably transfected
T1 sequence (Q12809 whole entry): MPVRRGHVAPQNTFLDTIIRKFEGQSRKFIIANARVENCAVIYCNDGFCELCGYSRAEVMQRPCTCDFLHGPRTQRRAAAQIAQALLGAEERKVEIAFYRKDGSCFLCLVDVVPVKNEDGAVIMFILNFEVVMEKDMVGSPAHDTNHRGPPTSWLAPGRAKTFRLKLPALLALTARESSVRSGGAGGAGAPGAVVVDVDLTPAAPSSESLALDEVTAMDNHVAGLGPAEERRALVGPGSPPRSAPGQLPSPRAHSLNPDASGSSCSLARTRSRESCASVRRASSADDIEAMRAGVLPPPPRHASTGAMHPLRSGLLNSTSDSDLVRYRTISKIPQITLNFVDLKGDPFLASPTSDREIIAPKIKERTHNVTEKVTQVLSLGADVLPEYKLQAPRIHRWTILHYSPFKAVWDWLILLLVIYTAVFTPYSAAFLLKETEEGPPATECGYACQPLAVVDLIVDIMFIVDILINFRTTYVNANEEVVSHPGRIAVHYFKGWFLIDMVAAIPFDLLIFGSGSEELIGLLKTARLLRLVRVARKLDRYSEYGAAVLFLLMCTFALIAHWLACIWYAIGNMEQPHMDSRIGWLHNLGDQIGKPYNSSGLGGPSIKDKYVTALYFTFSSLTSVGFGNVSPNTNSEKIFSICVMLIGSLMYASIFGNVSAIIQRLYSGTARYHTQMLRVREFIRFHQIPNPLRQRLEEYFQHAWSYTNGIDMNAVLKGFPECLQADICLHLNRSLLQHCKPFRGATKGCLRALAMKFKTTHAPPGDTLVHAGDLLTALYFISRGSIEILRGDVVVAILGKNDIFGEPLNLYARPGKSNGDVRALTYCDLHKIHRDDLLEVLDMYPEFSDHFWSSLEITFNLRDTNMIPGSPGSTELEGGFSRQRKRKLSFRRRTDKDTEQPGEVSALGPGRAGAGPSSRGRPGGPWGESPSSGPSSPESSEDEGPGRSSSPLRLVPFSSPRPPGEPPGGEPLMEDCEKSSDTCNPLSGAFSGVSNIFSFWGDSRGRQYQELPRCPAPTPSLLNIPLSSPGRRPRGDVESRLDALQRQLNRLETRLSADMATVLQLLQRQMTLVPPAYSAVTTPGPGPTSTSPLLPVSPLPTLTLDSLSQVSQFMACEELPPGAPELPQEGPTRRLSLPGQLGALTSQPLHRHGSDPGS
Experimental: (§1) A CHO cell line stably transfected with cDNA and expressing hERG channels of P15 was used for the study.
(§2) Cells were maintained in Petri dishes or flasks at 37° C. in a humidified incubator with 5% CO2 and cultured in a medium containing Ham's F12, 10% (v/v) heat-inactivated FBS, 100 μg/mL hygromycin B and 100 μg/mL geneticin (from Invitrogen). The cells were allowed to grow and reach a confluency of about 80-90% under the above conditions. Before the experiment, the cells were treated with Detachin (from Genlantis) for 3-5 min, at 37° C., then gently mixed well with medium at room temperature, and titrated 15-20 times with a pipette. Then the cells were resuspended in a serum-free medium containing CHO—S-SFM II medium (from Invitrogen) buffered with HEPES (25 mM). The cells used in QPatch study must meet the following criteria: under microscopy examination, the majority of cells in suspension should be single and isolated; their viability should be greater than 95%, with only a small amount of debris and cell clumps (which may clog the holes in QPlate during whole-cell clamp recording); the cell density should be within the range of 3-8×10^6 cells/mL in the final suspension before application to the QPatch stir chamber. Cells under such conditions can be used for recording only within four hours of being harvested.
(§3) Data acquisition was performed using automated QPatch (Sophion Biosciences, Denmark). The cells were voltage-clamped at a holding potential of −80 mV. The hERG current was activated by depolarization at +20 mV for 5 s, after which the current was activated back to −50 mV for 2.5 s to remove the inactivation and observe the outward tail current. The maximum amount of tail current was used to determine hERG current amplitude.
(§4) Six doses (30, 10, 3, 1, 0.3 and 0.1 μM) were selected to obtain a fitted curve and IC^50. The compound was prepared into serial dilutions in 3, 1, 0.3 and 0.1 mM DMSO vehicle to the final M ranges before the QPatch test. 5-10 minutes' ultrasonication and vortexing were generally used for solution to help completely dissolve the compound. The final DMSO concentration was 0.1% or lower, except that for the 30 μM point, the DMSO concentration was about 0.3%.
(§5) After achieving break-in (whole-cell) configuration, the cells were recorded for 120 s to assess current stability. The voltage settings described above were then applied to the cells once every 15 s throughout the whole process. Only stable cells with recording parameters above threshold were allowed to enter the drug assessment procedure. All the experiments were conducted at room temperature (about 25° C.).
(§6) An external solution containing 0.1% DMSO (vehicle) was applied to the cells to establish a baseline. After allowing the current to stabilize for 3 min, the compound was added. The compound solution was added and the cells were kept in the test solution until the effect of the compound reached a steady state or for a maximum of 4 min. For dose response assays, the compound was applied cumulatively to the cells from low to high concentrations. Washing with external solution was performed after compound testing. The positive control cisapride was used in the experiments to test the same batch of cells used for test compounds to ensure the normal response and the good quality of the cells.

[2] = target: T2, hERG (Homo sapiens, UniProt Q12809); experiment: as above; type: cell-based; details: human, CHO cells stably expressing hERG channels
T2 construct: expressed in transfected cells; host or cells: CHO cells, stably transfected
T2 sequence (Q12809 whole entry): as above
Experimental: as §1, §2, §3, §4, §5, §6

[3] = PK profile in SD rats (i.v. / oral gavage, plasma LC-MS); type: in vivo; details: female, rat; for Vd: read-out: Vdss
From the text: Method: SD rats from acceptable sources (N=3, female, 6-8 weeks, weighing 200-230 g, purchased from JH Laboratory Animal Co. LTD, SCXK (SH) 2017-0012 20170012001153) or beagles (N=3, not experimentally naive animals, female, weighing 6.55-8.62 kg, purchased from Beijing Marshall Biotech Co. Ltd., quality inspection number SCXK (BJ) 2016-0001 110318201100068072) were selected and administered, by intravenous injection or oral gavage (3 animals per route), corresponding doses of the test compound GEN1-117 or GEN1-284s (the sample for intravenous injection was dissolved in a solution of 10% DMSO, 10% Soltol HS15 and 80% PBS, and the sample for oral administration was dissolved in a 0.5% aqueous methylcellulose solution). Peripheral blood samples (150 μL) were taken (at 0, 0.083, 0.25, 0.5, 1, 2, 4, 8 and 24 h for the intravenous injection route; at 0, 0.25, 0.5, 1, 2, 4, 8 and 24 h for the oral injection route; into K2-EDTA anticoagulant tubes; centrifuged at 2000 g at 4 C for 5 min within 15 min), and plasma was separated and subjected to LC-MS analysis (LC-MS/MS-37, triple Quad 6500) using the conventional method with diclofenac as an internal standard. Mass spectrometry conditions: ESI cation, MRM detection:
HPLC conditions: mobile phase A: 0.1% FA in water, mobile phase B: 0.1% FA in ACN
Chromatography column: Waters ACQUITY UPLC HSS T3 (2.1×50 mm, 1.8 μm)
A test sample standard curve was prepared from 1, 2, 10, 30, 100, 300, 1000, 2700 and 3000 ng/mL (50% ACN in water), and 3 μL of standard-curve solution was mixed with 57 μL of same-species blank plasma. A test plasma sample (60 μL) was well mixed with 6 μL of 10% FA in water, and 30 μL of the mixture was taken and well mixed with 200 μL of the internal standard compound diclofenac (40 ng/mL in ACN). After the resulting mixture was vortexed and shaken for 1 min and centrifuged at 5800 rpm for 10 min, 100 μL of the supernatant was transferred to a new test plate, and 1 μL of solution was loaded on an LC-MS/MS system.

[4] = read-out: % of hERG inhibition, Cell 2
[5] = read-out: Mean % hERG inhibition
[6] = read-out: % of hERG inhibition, Cell 1
[7] = iv, 1 mg/kg, GEN1-117 dosed i.v. 1 mg/kg
[8] = iv, 1 mg/kg, GEN1-284s dosed i.v. 1 mg/kg, analyte = labelled compound
[9] = iv, GEN1-117 dosed i.v. 1 mg/kg
[10] = po, 10 mg/kg, GEN1-117 dosed p.o. 10 mg/kg
[11] = po, 10 mg/kg, GEN1-284s dosed p.o. 10 mg/kg, analyte = labelled compound
[12] = po, GEN1-284s dosed p.o. 10 mg/kg, analyte = labelled compound
[13] = iv, GEN1-284s dosed i.v. 1 mg/kg, analyte = labelled compound

SMILES | Inhibitory activity against hERG (conclusion) [1] | inhibition at 0.3 µM [1, 4] | inhibition at 0.3 µM [1, 5] | inhibition at 1 µM [1, 6] | inhibition at 1 µM [1, 4] | inhibition at 1 µM [1, 5] | inhibition at 3 µM [1, 6] | inhibition at 3 µM [1, 4] | inhibition at 3 µM [1, 5] | inhibition at 0.1 µM [2, 6] | inhibition at 0.1 µM [2, 4] | inhibition at 0.1 µM [2, 5] | inhibition at 0.3 µM [2, 6] | inhibition at 10 µM [2, 6] | inhibition at 10 µM [2, 4] | inhibition at 10 µM [2, 5] | inhibition at 30 µM [2, 6] | inhibition at 30 µM [2, 4] | inhibition at 30 µM [2, 5] | Tmax [3, 11] | also measured
O=C(Cc1ccc2ncccc2c1)N1CCC(n2c(=O)[nH]c3cccc(C(F)(F)F)c32)CC1 [GEN1-117, 1-(1-(2-(Quinolin-6-yl)acetyl)piperidin-4-yl)-7-(trifluoromethyl)-1H-benzo[d]imidazol-2(3H)-one] | no significant inhibitory activity against hERG | 4.17% | 4.06% | 7.99% | 13.4% | 10.7% | 11% | 13.3% | 12.2% | 3.84% | -0.21% | 1.81% | 3.95% | 12.8% | 19.3% | 16% | 12.8% | 19.3% | 16% | 2 h | AUC(0-t) [3, 7]: 1640 ng·h/mL; half-life [3, 7]: 4.2 h; AUC(0-t) [3, 8]: 1510 ng·h/mL; half-life [3, 8]: 4.16 h; clearance [3, 9]: 10.3 mL/min/kg; Vd [3, 9]: 2.75 L/kg; bioavailability ([3]; oral, GEN1-117 dosed p.o. 10 mg/kg vs i.v. 1 mg/kg): 2.6%; AUC(0-t) [3, 10]: 423 ng·h/mL; Cmax [3, 10]: 42.8 ng/mL; Tmax [3, 10]: 4 h; half-life [3, 10]: 4.28 h; AUC(0-t) [3, 11]: 14600 ng·h/mL; Cmax [3, 11]: 2440 ng/mL; half-life [3, 11]: 3.82 h; bioavailability [3, 12]: 96.3%
O=C(Cc1ccc2ncccc2c1)N1CCC(n2c(=O)n(COP(=O)([O-])[O-])c3cccc(C(F)(F)F)c32)CC1.[Na+].[Na+] [GEN1-284 salt, (2-Oxo-3-(1-(2-(quinolin-6-yl)acetyl)piperidin-4-yl)-4-(trifluoromethyl)-2,3-dihydro-1H-benzo[d]imidazol-1-yl)methyl disodium phosphate] | no significant inhibitory activity against hERG | 2.25% | 6.24% | 2.88% | 0% | 1.44% | 0% | 2.66% | 1.33% | 2.22% | 8.28% | 5.25% | 10.2% | 9.28% | 3.41% | 6.34% | 19.1% | 8.86% | 13.9% | 0.42 h | AUC(0-t) [3, 13]: 2750 ng·h/mL; clearance [3, 13]: 6.23 mL/min/kg; half-life [3, 13]: 0.39 h; Vd [3, 13]: 0.047 L/kg; AUC(0-t) [3, 12]: 5.72 ng·h/mL; Cmax [3, 12]: 6.04 ng/mL; half-life [3, 12]: 0.95 h
